Entries after “also recorded” stand apart in the source; their conditions may differ.
Assays:
Type in all cases: physicochemical
[1] = Hygroscopicity / deliquescence of crystalline salts at elevated relative humidity
Excerpt: This is exemplified by the hygroscopicity of the crystalline hydrochloride (HCl) salt of trans-4-({2-[(2S)-2-cyanopyrrolidinyl]-2-oxoethyl}amino)-N,N-dimethylcyclohexanecarboxamide. […] That is, the benzenesulfonic acid salts of the present invention sorb much lower amounts of water when exposed to a broad range of humidities and can be prepared in a physically stable crystal form, thus enhancing their suitability as medicaments.

[2] = Infrared (IR) studies of hydration/dehydration of besylate monohydrate
Description: The partially dehydrated form of the monohydrate Form 1 of Formula I is stable for at least 24 hours at room temperature and partial hydration to the monohydrate of Formula I can be recovered at higher relative humidity (RH).
Samples of trans-4-({2-[(2S)-2-cyanopyrrolidinyl]-2-oxoethyl}amino)-N,N-dimethylcyclohexane-carboxamide besylate monohydrate either as a pure solid or diluted in KBr powder were placed inside a FTIR spectrometer purged under dry N2 at room temperature (RT). […] Upon re-exposure of the partially dehydrated samples to the atmosphere for <1 min., the intensities of these IR bands are fully recovered. The FTIR spectrum of this experiment is in FIG. 4.

[3] = Moisture sorption testing of besylate monohydrate salt (integrated gas flow microbalance)
Description: Moisture sorption was measured with an integrated gas flow microbalance system. Approximately 20 mg of 4-({2-[(2S)-2-cyanopyrrolidinyl]-2-oxoethyl}amino)-N,N-dimethylcyclohexanecarboxamide besylate monohydrate salt was weighed into a sample pan of an integrated gas flow microbalance system (SGA100, VTI Corporation). The sample was dried at 60° C. under a dry nitrogen stream until the rate of weight loss was less than 0.015% in 5 minutes. After drying the sample was equilibrated at 25° C. and the relative humidity increased stepwise (adsorption) to 5, 15, 25, 35, 45, 55, 65, 75, 85 and 95% Each relative humidity step was held until the sample equilibrated at that condition. Equilibrium was defined as a weight change of less than 0.015% in 5 minutes. The relative humidity was then decreased step wise (desorption) to 90, 80, 70, 60, 50, 40, and 20% Each step was held until equilibrium was reached. The equilibrium condition was the same as in the sorption phase. The % w/w increase or decrease in moisture content of the sample is reported for each equilibrated RH condition.

[4] = Moisture sorption testing of besylate anhydrate salt (integrated vacuum microbalance); conditions: in the presence of water vapour, such as at elevated relative humidity
Description: Moisture sorption was measured with an integrated vacuum microbalance system. Approximately 11 mg of 4-({2-[(2S)-2-cyanopyrrolidinyl]-2-oxoethyl}amino)-N,N-dimethylcyclohexanecarboxamide besylate anhydrate salt was weighed into a sample pan of an integrated vacuum microbalance system (MB300G, VTI Corporation). The sample was dried at 60° C. under vacuum until the rate of weight loss was less than 0.015% in 2 minutes. After drying the sample was equilibrated at 25° C. and the relative humidity increased stepwise (adsorption) to 15, 25, 35, 45, 55, 65, 75, 85 and 95% Each relative humidity step was held until the sample equilibrated at that condition. Equilibrium was defined as a weight change of less than 0.015% in 2 minutes. The relative humidity was then decreased step wise (desorption) to 90, 80, 70, 60, 50, 40, 30 and 20% Each step was held until equilibrium was reached. The equilibrium condition was the same as in the sorption phase. The % w/w increase or decrease in moisture content of the sample is reported for each equilibrated RH condition.

[5] = purged under dry N2 at room temperature

SMILES: CN(C)C(=O)[C@H]1CC[C@H](NCC(=O)N2CCC[C@H]2C#N)CC1.Cl (relative stereo) [HCl salt, trans-4-({2-[(2S)-2-cyanopyrrolidinyl]-2-oxoethyl}-amino)-N,N-dimethylcyclohexanecarboxamide hydrochloride]
- time to deliquesce ([1]; 25° C., relative humidities greater than 75%): approximately 20 hours
- time to deliquesce ([1]; 40° C., relative humidities of greater than 75%): approximately 24 hours

SMILES: CN(C)C(=O)[C@H]1CC[C@H](NCC(=O)N2CCC[C@H]2C#N)CC1 [Form 1, trans-4-({2-[(2S)-2-cyanopyrrolidinyl]-2-oxoethyl}amino)-N,N-dimethylcyclohexanecarboxamide benzenesulfonate monohydrate]
- re-exposure time to the atmosphere after which IR bands are fully recovered ([2]; partially dehydrated samples re-exposed to the atmosphere): < 1 min
- time to reach dehydration equilibrium (IR bands of H2O) [2, 5]: ~30 min
- time within which IR bands assigned to H2O decreased very rapidly [2, 5]: ≤ 10 min
- stability of the partially dehydrated form ([2]; room temperature): at least 24 hours
- dehydration (loss of water) ([2]; room temperature, purged with or exposed to dried air or dry nitrogen (low relative humidity), benzenesulfonate monohydrate): loses water readily; also recorded: partial dehydration of the hydrate is facile
- re-hydration of the dehydrated form ([2]; upon exposure to atmospheric humidity / higher relative humidities, benzenesulfonate monohydrate): re-hydration occurs rapidly; also recorded: re-hydration to the monohydrate occurs very rapidly
- water absorbed ([3]; relative humidity between 0% and 95% at 25° C.): less than 10 % w/w
- additional water sorbed by the monohydrate ([3]; up to 95% relative humidity, on top of monohydrate water content): 1-2 % w/w
- desorption of adsorbed water ([3]; when the relative humidity is decreased): readily desorbs

SMILES: CN(C)C(=O)C1CCC(NCC(=O)N2CCC[C@H]2C#N)CC1.O=S(=O)(O)c1ccccc1 (stereo partly drawn) [Form 2, trans-4-({2-[(2S)-2-cyanopyrrolidinyl]-2-oxoethyl}amino)-N,N-dimethylcyclohexanecarboxamide besylate anhydrate]
- conversion of anhydrate form [4]: converts to the hydrate

From patent publication US20090137658A1, “BENZENESULFONIC ACID SALT COMPOUNDS” (Tanabe Seiyaku Co.,Ltd., priority 2003, published 2009)
